In patent publication US9879032B2, “Pyridine compounds” (Daiichi Sankyo Company, Limited, priority 2015, dated 2018):

test system: plasma ALP (80-90% containing TNAP); assay: Inhibitory test of plasma TNAP activity in B6 mouse; format: in vivo; conditions: administered orally, average inhibition from 0 hour to 6 hours after administration
Description: After blood sampling from the tail vein using a heparin-treated hematocrit capillary tube (EM Meister Hematocrit Capillary Tube, AS ONE Corp.) (as the sample before compound administration), each test compound suspended in a 0.5% methylcellulose solution (powder purchased from Wako Pure Chemical Industries, Ltd. was adjusted to 0.5% with Otsuka distilled water) was administered orally to the mouse. 1, 2, 4, 6, and 24 hours after the administration, blood was collected from the tail vein using a heparin-treated hematocrit capillary tube to obtain a plasma sample. The plasma sample was added to an assay buffer (1 M Tris, 1 M MgCl2, 20 mM ZnCl2, and water, pH 7.5), and the mixture was left standing for 5 minutes. Then, the absorbance at 405 nm was measured and used as a blank. The substrate pNPP was added to the plasma sample and incubated at room temperature for 180 minutes. Then, the absorbance (ABS: 405 nm) was measured using a microplate reader (model plus 384, Molecular Devices, LLC), and the concentration of produced p-nitrophenol was calculated. The blank was subtracted from all measurement values to calculate TNAP activity at each time point with the TNAP activity of the sample before compound administration defined as 100%. The pharmaceutical effect of the test compound was evaluated by the average inhibition of plasma ALP (80-90% containing TNAP) activity for 6 hours from 0 hour to 6 hours after the administration of the test compound. It was calculated according to the following expression: 100−((plasma ALP activity at 0 hr+plasma ALP activity at 1 hr)*1/2+(plasma ALP activity at 1 hr+plasma ALP activity at 2 hr)*1/2+(plasma ALP activity at 2 hr+plasma ALP activity at 4 hr)*2/2+(plasma ALP activity at 4 hr+plasma ALP activity at 6 hr)*2/2)/6.

In order of falling “Plasma ALP inhibition (6 h ave. inhibition %)” value:
1. O=C1N[C@@H](CO)COc2ncc([N-]S(=O)(=O)c3cc(Cl)ccc3OC(F)(F)F)cc21.[K+] [Example 54, Potassium {[5-chloro-2-(trifluoromethoxy)phenyl]sulfonyl}[(3S)-3-(hydroxymethyl)-5-oxo-2,3,4,5-tetrahydropyrido[3,2-f][1,4]oxazepin-7-yl]azanide]  74.8%
2. COc1ccc(F)cc1S(=O)(=O)[N-]c1cnc2c(c1)C(=O)NC1(CC1)CO2.[K+] [Example 57, Potassium [(5-fluoro-2-methoxyphenyl)sulfonyl](5′-oxo-4′,5′-dihydrospiro[cyclopropane-1,3′-pyrido[3,2-f][1,4]oxazepin]-7′-yl)azanide]  53.5%
3. O=C1NC2(CC2)COc2ncc([N-]S(=O)(=O)c3cc(Cl)ccc3OC(F)(F)F)cc21.[K+] [Example 58, Potassium {[5-chloro-2-(trifluoromethoxy)phenyl]sulfonyl}(5′-oxo-4′,5′-dihydrospiro[cyclopropane-1,3′-pyrido[3,2-f][1,4]oxazepin]-7′-yl)azanide]  50.3%
